Results as given in patent US20120321685A1, “COMPOSITIONS CONTAINING OILS HAVING A SPECIFIC GRAVITY HIGHER THAN THE SPECIFIC GRAVITY OF WATER” (SOL-GEL TECHNOLOGIES LTD., priority 2001, published 2012).

Columns and labels:
[1] = Solubility of BMDBM and other solid sunscreen actives in different solvents; format: physicochemical; settings: in Dipropylene glycol Dibenzoate (Finetex Finsolv PG-22), 25° C.
Description: The solubility of commonly used sunscreen active ingredients was tested by heating a solution of below-mentioned solvents or their mixture to 50° C. under stirring. Access amount of the sunscreen active was added. After thorough mixing to dissolve the solid, the solution was allowed to cool to 25° C. over night in the water bath under constant oscillation and the access active precipitated. The solution was filtered using 0.2 μm PTFE filter, and the concentration of BMDBM was determined by HPLC equipped with UV diode array detector against standard solution of BMDBM. For the other sunscreen actives, the concentration of the active was determined spectroscopically against standard solution of the active. Table 1 lists the solubility values obtained for BMDBM and other sunscreen actives in different commercially available solvents.

[2] = cited from earlier work
[3] = Solubility of benzoyl peroxide in Finsolve PG-22; format: physicochemical
Description: The solubility of benzoyl peroxide in dipropylene glycol dibenzoate (Finsolv PG 22) was measured in a method similar to Example 1. Benzoyl peroxide concentration was determined by titration according to USP. The solubility of benzoyl peroxide in Finsolve PG-22 is 6 wt. %.

Compound	Solvent specific gravity, acc. to D25/25 [2]	also measured
COc1ccc(C(=O)c2ccccc2)c(O)c1 [Benzophenone-3]		Solubility, concentration [1]: 26.6 wt %
CCC(=O)OCc1ccccc1 [Benzyl propionate]	1.028-1.032	
CC(COC(=O)c1ccccc1)OCC(C)OC(=O)c1ccccc1 (stereo not drawn) [Dermol DPG-2B, Dipropylene glycol Dibenzoate]	1.117	
CCOC(=O)c1ccccc1 [Ethyl benzoate]	1.043-1.046	
CCOC(=O)c1ccccc1O [Ethyl salicylate]	1.126-1.130	
CC(COC(=O)c1ccccc1)OCC(C)OC(=O)c1ccccc1 (stereo not drawn) [Finsolv PG-22, Dipropylene glycol Dibenzoate]	1.12	
Cc1ccc(/C=C2/C(=O)C3(C)CCC2C3(C)C)cc1 (stereo not drawn) [Methyl benzyledene camphor]		Solubility, concentration [1]: 30.16 wt %
O=C(OOC(=O)c1ccccc1)c1ccccc1 [benzoyl peroxide]		Solvent quality of dipropylene glycol dibenzoate for BPO ([3]; in dipropylene glycol dibenzoate): good solvent; Solubility of benzoyl peroxide in Finsolve PG-22 ([3]; in dipropylene glycol dibenzoate (Finsolv PG 22), method similar to Example 1, titration according to USP): 6 wt. %
